The fraction unbound is free concentration divided by total concentration. Read a high fraction unbound as weak binding. A word on the EC50: it is the concentration that produces a half-maximal response.

The values below come from patent US20260207637A1, “MODULATOR FOR PROMOTING BINDING OF BUTYROPHILIN 3A1/2A1” (priority 2023, published 2026).

Each structure is given as a SMILES string. Like-named read-outs stand apart in the source and are kept apart here.

Series [1] can be described thus: Binding rate test of compounds and human plasma protein (equilibrium dialysis). Format: in vitro ADME. As to conditions: human plasma, equilibrium dialysis 6 hours, 37° C. On the procedure:
(1) The dry dialysis membrane was soaked with ultrapure water for 20 min or more than 20 min, then soaked with 20% ethanol for 30 min to 1 h, and the membrane was rinsed with ultrapure water 2-3 times. Finally, the membrane was soaked with ultrapure water for 20 minutes for later use.
(2) The frozen plasma was thawed in a water bath at 37° C.
(3) The test compound was diluted into plasma preheated to 37° C. at a final concentration of 1 μM, and the final concentration of the control compound warfarin in plasma was 2 μM.
(4) The pre-treated dialysis membrane was assembled into the dialysis plate according to the specification of the product, and 120 μL of the receiving solution (100 mM phosphate buffer solution added 0.002% Tween 80) was added to one side of the permeable membrane in each dialysis well.
(5) 20 μL of each of the final solutions of the test compound and the control compound were added into a 96-well sample plate in duplicate, and the TO sample was obtained, which was stored in a refrigerator at −20° C. Another 20 μL of the above final solution was added to the other side of the membrane in the dialysis device in duplicate, and incubated at 37° C. by shaking at constant temperature for 6 hours.
(6) After 6 hours of incubation, 20 L of each of the dialyzed receiving solution and the administered plasma were weighed to obtain sample B and sample A in duplicate. The corresponding volume of corresponding blank plasma or receiving solution was added to sample B and sample A, respectively, so that the volume ratio of plasma to buffer in each sample well was 1:1. 300 μL of acetonitrile solution containing internal standard was added to all sample wells, and centrifuged after mixed uniformly.
(7) 200 μL of ultrapure water (150 μL for the control group) was added into the corresponding sample wells of the 96-well sample plate, and 300 μL of the supernatant (150 μL for the control group) was added into the sample well; the samples were analyzed after mixed uniformly. The free percentage and recovery rate of the compound in plasma were calculated using the following formula: Plasma protein binding rate (%)=1−free percentage, wherein free percentage (%)=CB/CA
wherein CB is the concentration of the compound in the receiving solution after equilibrium dialysis, CA is the concentration of the compound in the drug-dosed plasma after equilibrium dialysis, and CT0 is the initial concentration of the compound in plasma.

In the next series the test system is MIApaca/FG2 cells. Kind of series: EC50 assay of small molecule activated γδ T cells to kill MIApaca/FG2 tumor cells (3-fold dilution protocol). Format: cell-based. As to conditions: 0.05-100 nM, read-out: MIApaca killing (EC50). On the procedure: γδT cells and MIApaca/FG2 tumor cell lines were expanded and cultured in vitro. MIApaca/FG2 cells were digested, and the cells were counted and resuspended in DMEM complete medium, the density of the cell suspension was adjusted and added into a 96-well plate at 5×10^3 cells/100 […]/well for overnight incubation. On the next day, the test compound and the control compound were diluted at a 3-fold ratio with DMSO, and 4 μL of the diluted compound was added to 96 μL of culture medium for 25-fold dilution. 5 μL of 25-fold diluted compound was transferred to the corresponding well which had been plated with tumor cells, and the actual detection concentration was in the range of 0.05-100 nM. γδT cells were resuspended in γδT complete medium, and the density of the cell suspension was adjusted according to the effector-target ratio of E:T=2:1, and then the cell was added to the corresponding well at 1×10^4 cells/100 μL/well. After co-culture at 37° C., 5% CO2 for 20 hours, the cells were centrifuged. The supernatant was removed, and 50 μL of cell lysate containing fluorescein substrate was added to each well. After standing for 18 minutes in the dark, the signal of chemiluminescence was detected. The EC50 value was calculated by four-parameter fitting, with the corresponding signal value of the well with only tumor cells as the minimum killing value, and the corresponding value of the well without tumor cells as the maximum killing value. The killing data of MIApaca/FG2 cells is as follows: […]

The nature of series [2]: Stability experiment of compounds in human liver microsomes. Format: in vitro ADME. As to conditions: NADPH, 37° C., read-out: T1/2 in human liver microsomes. On the procedure:
Compounds were prepared as a 10 mM stock solution with DMSO and then diluted with 80% acetonitrile-water to a 100 μM working solution for later use. Human liver microsomes were obtained from BIOIVT.
(1) The liver microsomes taken out from the refrigerator were placed in a 37° C. water bath thermostatic oscillator, pre-incubated for 5 min, and thawed for later use.
(2) A certain amount of NADPH was weighed and added to an appropriate amount of magnesium chloride solution to dissolve into a 2 mM solution for later use.
(3) A mixed solution of the warm incubation system (containing no β-NADPH) was prepared according to the proportions in the “composition of the experimental warm incubation system” above and dispensed at 165 μL/tubes (45 μL/tube for the negative control group and 120 μL/tube for the positive control group).
(4) For the sample at 0 min: 200 μL of internal standard working precipitant was added and then 30 μL of NADPH solution was added.
(5) For other samples: 135 μL NADPH solution was added to initiate the reaction (45 μL magnesium chloride solution was added for the negative control group), and incubated in a 37° C. water bath for 5, 15, 30, and 60 min (incubated in a 37° C. water bath for 60 min for the negative control group), then 60 μL was sampled and added to 200 µL of precipitant containing internal standard.
(6) For the positive control group: 90 L NADPH solution was added to initiate the reaction, and incubated in a 37° C. water bath for 5, 15 min, then 60 μL was sampled and added to 200 μL of precipitant containing internal standard.
(7) For neat sample: 297 μL of water was pipetted into a tube, 1000 μL of internal standard working solution was added, and 3 μL of test compound working solution was added.
(8) All samples were vortexed and centrifuged.
(9) 150 μL of the supernatant was sampled and added to 150 μL of water, mixed uniformly by vortex, and analyzed by LC-MS/MS. The half-life stability data of human liver microsomes is as follows: […]
In general terms: Liver microsomes are vesicles of endoplasmic reticulum, rich in cytochrome P450 enzymes.

Setting [3] is: Homo sapiens, MIA PaCa-2, γδT cells + MIApaca/FG2, E:T=2:1, co-culture 20 hours.
Setting [4] is: γδT cells + MIApaca/FG2, E:T=2:1, co-culture 20 hours.

For the molecule `C/C(=C\CC[P@@](=O)(N[C@@H](C)C(=O)O[C@@H]1CCOC1)Oc1ccccc1)CO` (single isomer, unassigned) [Compound 18], in series [1], the fraction unbound at 6 h, 1 μM is 0.178. Besides, the EC50 with MIApaca/FG2 cells (setting [3]) stood at 0.2 nM. Besides, the half-life in series [2] is 20.9 min.

As for `C/C(=C\CCP(=O)(N[C@@H](C)C(=O)O[C@@H]1CCOC1)Oc1ccccc1)CO` (stereo partly drawn) [Compound 7, (R)-Tetrahydrofuran-3-yl (((E)-5-hydroxy-4-methylpent-3-en-1-yl)(phenoxy)phosphoryl)-L-alaninate], the fraction unbound at 6 h, 1 μM in series [1] was 0.222. The half-life in series [2] amounted to 21.6 min.

As to `C/C(=C\CCP(=O)(N[C@@H](C)C(=O)O[C@H]1CCOC1)Oc1ccccc1)CO` (stereo partly drawn) [Compound 8, (S)-tetrahydrofuran-3-yl (((E)-5-hydroxy-4-methylpent-3-en-1-yl)(phenoxy)phosphoryl)-L-alaninate], in series [1], the fraction unbound at 6 h, 1 μM is 0.168. Besides, the half-life in series [2] turned out to be 27.3 min.

In the case of `C/C(=C\CCP(=O)(N[C@@H](C)C(=O)O[C@@H]1CCOC1)Oc1ccc(Cl)cc1)CO` (stereo partly drawn) [Compound 15], the EC50 with MIApaca/FG2 cells (setting [4]) is 0.2 nM.

For `C/C(=C\CCP(=O)(N[C@@H](C)C(=O)O[C@@H]1CCOC1)Oc1ccc(C)cc1)CO` (stereo partly drawn) [Compound 16], the EC50 with MIApaca/FG2 cells (setting [4]) came to 0.55 nM.

With `C/C(=C\CCP(=O)(N[C@@H](C)C(=O)O[C@@H]1CCOC1)Oc1cccc2ccccc12)CO` (stereo partly drawn) [Compound 17], the EC50 in the series on MIApaca/FG2 cells (setting [4]) amounted to 0.12 nM.

On to `C/C(=C\CCP(=O)(N[C@@H](C)C(=O)OC1CCOCC1)Oc1ccccc1)CO` (stereo partly drawn) [Compound 20], for which the fraction unbound at 6 h, 1 μM in series [1] was 0.227. For the same molecule, the 50% effective concentration (EC50) in the series with MIApaca/FG2 cells (setting [3]) is 0.48 nM. Moreover, the half-life in series [2] amounted to 24 min.

In the case of `CC(C)OC(=O)[C@H](C)NP(=O)(CC/C=C(\F)CO)Oc1ccccc1` (stereo partly drawn) [Compound 23, Isopropyl (((Z)-4-fluoro-5-hydroxy-3-en-1-yl)(phenoxy)phosphoryl)-L-alaninate], the EC50 in the series on MIApaca/FG2 cells (setting [4]) was 3.96 nM.

For the molecule `CC(C)OC(=O)[C@H](C)NP(=O)(CC/C=C(/CO)C(F)(F)F)Oc1ccccc1` (stereo partly drawn) [Compound 24, isopropyl (phenoxy((Z)-5,5,5-trifluoro-4-(hydroxymethyl)pent-3-en-1-yl)phosphoryl)-L-alaninate], the EC50 with MIApaca/FG2 cells (setting [4]) was determined as 0.78 nM.

Regarding `C/C(=C\CCP(=O)(N[C@@H](C)C(=O)OCCO)Oc1ccccc1)CO` (stereo partly drawn) [Compound 25, 2-Hydroxyethyl (((E)-5-hydroxy-4-methylpent-3-en-1-yl)(phenoxy)phosphoryl)-L-alaninate], the EC50 in the series on MIApaca/FG2 cells (setting [4]) stood at 0.17 nM.

As for `C/C(=C\CCP(=O)(NC(C)(C)C(=O)O[C@@H]1CCOC1)Oc1ccccc1)CO` (stereo partly drawn) [Compound 26, (R)-tetrahydrofuran-3-yl 2-((((E)-5-hydroxy-4-methylpent-3-en-1-yl)(phenoxy)phosphoryl)amino)-2-methylpropanoate], the EC50 in the series with MIApaca/FG2 cells (setting [4]) is 0.1 nM.

In series [1], `C[C@H](NP(=O)(CC/C=C(/CO)C(F)(F)F)Oc1ccccc1)C(=O)O[C@@H]1CCOC1` (stereo partly drawn) [Compound 27, (R)-tetrahydrofuran-3-yl (phenoxy((Z)-5,5,5-trifluoro-4-(hydroxymethyl)pent-3-en-1-yl)phosphoryl)-L-alaninate] gave a fraction unbound at 6 h, 1 μM of 0.193. Moreover, the EC50 in the series with MIApaca/FG2 cells (setting [3]) was 0.23 nM. Moreover, the half-life in series [2] came out at 10.5 min.

For the molecule `C/C(=C\CCP(=O)(N[C@@H](C)C(=O)OC1CCS(=O)(=O)CC1)Oc1ccccc1)CO` (stereo partly drawn) [Compound 28, 1,1-Dioxotetrahydro-2H-thiopyran-4-yl (((E)-5-hydroxy-4-methylpent-3-en-1-yl)(phenoxy)phosphoryl)-L-alaninate], the EC50 in the series with MIApaca/FG2 cells (setting [4]) was 0.88 nM.

Turning to `CC(=O)N1CCC(OC(=O)[C@H](C)NP(=O)(CC/C=C(\C)CO)Oc2ccccc2)CC1` (stereo partly drawn) [Compound 29], the EC50 with MIApaca/FG2 cells (setting [4]) came to 1.63 nM.

As for `C/C(=C\CCP(=O)(N[C@@H](C)C(=O)OC1CC2(COC2)C1)Oc1ccccc1)CO` (stereo partly drawn) [Compound 30, 2-Oxaspiro[3.3]heptan-6-yl (((E)-5-hydroxy-4-methylpent-3-en-1-yl)(phenoxy)phosphoryl)-L-alaninate], the fraction unbound at 6 h, 1 μM in series [1] is 0.359. Also, the EC50 in the series on MIApaca/FG2 cells (setting [3]) came to 0.11 nM. Besides, the half-life in series [2] turned out to be 24.4 min.

For `C/C(=C\CCP(=O)(N[C@@H](C)C(=O)OC1CCN(CC(F)(F)F)CC1)Oc1ccccc1)CO` (stereo partly drawn) [Compound 31], in series [1], the fraction unbound at 6 h, 1 μM was 0.129. Also, the EC50 in the series with MIApaca/FG2 cells (setting [3]) came to 0.13 nM. Besides, the half-life in series [2] was 3.91 min.

In series [1], `C/C(=C\CCP(=O)(N[C@@H](C)C(=O)O[C@H]1CO[C@H]2OCC[C@H]21)Oc1ccccc1)CO` (stereo partly drawn) [Compound 32, (3R,3aS,6aR)-hexahydrofuran[2,3-b]furan-3-yl (((E)-5-hydroxy-4-methylpent-3-en-1-yl)(phenoxy)phosphoryl)-L-alaninate] gave a fraction unbound at 6 h, 1 μM of 0.214. In addition, the EC50 with MIApaca/FG2 cells (setting [3]) came out at 0.21 nM. For the same molecule, the half-life in series [2] was determined as 11.4 min.

Turning to `C/C(=C\CCP(=O)(N[C@@H](C)C(=O)O[C@@H]1CCO[C@H](C)C1)Oc1ccccc1)CO` (stereo partly drawn) [Compound 33], in series [1], the fraction unbound at 6 h, 1 μM was 0.192. The EC50 in the series on MIApaca/FG2 cells (setting [3]) stood at 0.65 nM. Also, the half-life in series [2] amounted to 19.9 min.

On to `C/C(=C\CCP(=O)(N[C@@H](C)C(=O)O[C@H]1C[C@@H](C)O[C@@H](C)C1)Oc1ccccc1)CO` (stereo partly drawn) [Compound 34, (2R,4r,6S)-2,6-dimethyltetrahydro-2H-pyran-4-yl (((E)-5-hydroxy-4-methylpent-3-en-1-yl)(phenoxy)phosphoryl)-L-alaninate], for which the EC50 in the series on MIApaca/FG2 cells (setting [4]) was 1.03 nM.

In series [1], `C/C(=C\CCP(=O)(N[C@@H](C)C(=O)O[C@@H]1CCNC(=O)C1)Oc1ccccc1)CO` (stereo partly drawn) [Compound 35, (R)-2-piperidone-4-yl (((E)-5-hydroxy-4-methylpent-3-en-1-yl)(phenoxy)phosphoryl)-L-alaninate] had a fraction unbound at 6 h, 1 μM of 0.429. In the series on MIApaca/FG2 cells (setting [3]), the EC50 was 2.15 nM. The half-life in series [2] stood at 82.5 min.

In the case of `C/C(=C\CCP(=O)(N[C@@H](C)C(=O)OC1(C#N)CCCC1)Oc1ccccc1)CO` (stereo partly drawn) [Compound 36, 1-Cyanocyclopentyl (((E)-5-hydroxy-4-methylpent-3-en-1-yl)(phenoxy)phosphoryl)-L-alaninate], in series [1], the fraction unbound at 6 h, 1 μM was 0.038. The EC50 in the series with MIApaca/FG2 cells (setting [3]) was below 0.05 nM. Besides, in series [2], the half-life was 3.08 min.

As to `C/C(=C\CC(F)(F)P(=O)(N[C@@H](C)C(=O)OC1CCOCC1)Oc1ccccc1)CO` (stereo partly drawn) [Compound 38], the EC50 in the series with MIApaca/FG2 cells (setting [4]) turned out to be 0.65 nM.
